Test results from patent publication US10941153B2, “Substituted phenethylamine derivatives” (REGENTS OF THE UNIVERSITY OF MINNESOTA, priority 2018, dated 2021).
Blank lines part the entries; values can stand above or below the compound they belong to.

Columns and labels:
σ1 receptor = biological target: T1, σ1 receptor (UniProt Q99720); assay: PDSP binding affinity, sigma-1; design: species or system human
T1 construct: Ki, Sigma-1; σ1 potency and selectivity, in words; other: relative to compound 4e
From the text: Assay data for compound 53558 against sigma-1 receptor is presented in FIG. 21 and Tables 10 and 11 below: […]

5-HT2B receptor = 5-HT2B receptor (Homo sapiens, UniProt P41595); assay: PDSP GPCR binding affinity, 5-HT2B
From the text: (§1) In particular, the Ki (nM) value is provided. […] FIGS. 14-15 are graphical views of Log P vs. Ki, 5-HT2B receptor and Log P vs. Ki, sigma-1 receptor, respectively, summarizing the data presented in Table 6, according to one or more embodiments of the present disclosure. Assay data for compound 53545 against 5-HT7A receptor is presented in FIG. 18 and Tables 8-9 provided below:
Assay data for compound 53529 against 5-HT2B receptor is presented in FIG. 22 and Tables 12-13 provided below: […]

5-HT7 receptor = 5-HT7 receptor (Homo sapiens, UniProt P34969); assay: PDSP GPCR binding affinity, 5-HT7; details: for 5-HT7 potency, in words: relative to compound 4i
From the text: as §1, with “below: […]” for “below:”

5-HT1A receptor = biological target: T2, 5-HT1A receptor (Homo sapiens, UniProt P08908); assay: PDSP GPCR binding affinity, 5-HT1A
T2 sequence (P08908 1-422): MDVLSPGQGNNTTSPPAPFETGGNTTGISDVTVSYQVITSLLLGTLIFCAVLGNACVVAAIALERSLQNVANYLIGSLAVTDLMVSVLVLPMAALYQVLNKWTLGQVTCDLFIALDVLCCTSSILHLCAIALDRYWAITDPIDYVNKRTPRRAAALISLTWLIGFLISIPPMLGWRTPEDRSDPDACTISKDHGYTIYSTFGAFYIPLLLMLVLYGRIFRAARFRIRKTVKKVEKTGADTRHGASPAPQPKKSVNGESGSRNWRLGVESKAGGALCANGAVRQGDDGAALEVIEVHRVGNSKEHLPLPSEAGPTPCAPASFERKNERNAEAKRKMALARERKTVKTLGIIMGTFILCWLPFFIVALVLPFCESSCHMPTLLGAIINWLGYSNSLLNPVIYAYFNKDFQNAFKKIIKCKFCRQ
From the text: as §1, with “below: […]” for “below:”

[1] = tested on: human GPCR (serotonin, adrenergic, dopamine, histamine, muscarinic, opioid, sigma and others); assay: PDSP broad GPCR screen; details: wider array of GCPR, Table 5
Procedure: The G-Protein-coupled receptor (GPCR) binding affinity of the compounds of the present disclosure was assessed through the Psychoactive Drug Screening Program.
An initial screen of three primary amines was submitted. […] The molecules were screened across a wide range of human GPCR including serotonin (5-HT), α- and β-adrenergic (Alpha and Beta), dopamine (D), histamine (H), muscarinic (M), opioid (OR), sigma (σ), and others (Table 1).

5-HT7 receptor, sequence (P34969 1-445 isoform P34969-2): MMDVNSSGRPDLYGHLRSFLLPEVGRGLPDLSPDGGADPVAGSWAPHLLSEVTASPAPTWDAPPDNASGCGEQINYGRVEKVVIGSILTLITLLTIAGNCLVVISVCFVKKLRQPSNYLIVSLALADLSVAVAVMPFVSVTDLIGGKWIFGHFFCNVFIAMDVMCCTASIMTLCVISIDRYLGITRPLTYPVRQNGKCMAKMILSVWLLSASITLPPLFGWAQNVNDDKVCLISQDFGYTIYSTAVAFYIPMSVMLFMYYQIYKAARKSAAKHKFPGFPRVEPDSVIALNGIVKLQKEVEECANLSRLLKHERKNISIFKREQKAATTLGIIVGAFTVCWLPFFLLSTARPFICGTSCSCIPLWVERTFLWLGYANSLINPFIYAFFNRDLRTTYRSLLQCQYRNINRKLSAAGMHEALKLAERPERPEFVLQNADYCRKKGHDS
5-HT2B receptor, sequence (P41595 whole entry): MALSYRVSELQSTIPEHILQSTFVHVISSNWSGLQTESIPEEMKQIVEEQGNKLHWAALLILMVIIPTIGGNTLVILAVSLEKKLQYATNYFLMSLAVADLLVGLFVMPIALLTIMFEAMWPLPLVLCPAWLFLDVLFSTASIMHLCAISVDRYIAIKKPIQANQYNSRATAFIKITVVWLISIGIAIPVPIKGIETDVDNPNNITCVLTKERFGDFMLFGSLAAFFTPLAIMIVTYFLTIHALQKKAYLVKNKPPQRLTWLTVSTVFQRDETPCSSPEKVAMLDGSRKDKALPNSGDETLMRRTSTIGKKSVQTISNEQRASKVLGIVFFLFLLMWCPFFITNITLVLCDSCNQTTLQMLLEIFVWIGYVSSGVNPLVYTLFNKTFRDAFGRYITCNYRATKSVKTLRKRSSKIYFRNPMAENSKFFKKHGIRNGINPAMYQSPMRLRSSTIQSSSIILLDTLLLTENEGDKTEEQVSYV

Compound: C[C@@]12COc3cc(OCc4ccccc4)ccc3[C@@H]1CCN2 [Compound 4c]
σ1 binding, in words (σ1 receptor): potent σ1 ligand

Compound: C[C@@]12COc3cc(O)ccc3[C@@H]1CCN2 [Compound 4d]
σ1 binding, in words (σ1 receptor): detrimental to activity

Compound: Cc1cc(C)c2c(c1)OC[C@@]1(C)NCC[C@@H]21 [Compound 4f]
5-HT2B binding, in words (5-HT2B receptor): enhanced 5-HT2B binding

Ki (5-HT7 receptor): 6.3 nM
selectivity for 5-HT7 vs next most sensitive receptor, σ1 (5-HT7 receptor): ~75 fold
Ki (5-HT1A receptor): > 10000 nM
Compound: CC12CN(c3ccccc3)c3ccccc3C1CCN2 (stereo not shown) [Compound 4i]
activity across the additional GCPR investigated [1]: minimal activity

5-HT7 potency, in words (5-HT7 receptor): further enhanced
Compound: CN1CC[C@H]2c3ccccc3N(c3ccccc3)C[C@]21C [Compound 10c]

5-HT7 potency, in words (5-HT7 receptor): removed activity
Compound: CC(=O)N1CC[C@H]2c3ccccc3N(c3ccccc3)C[C@]21C [Compound 11c]

Compound: SB 206553 [reference compound]
Ki (5-HT2B receptor; 5-HT2B receptor, competition binding curve, SB 206553 as reference, read-out: Ki (Table 12)): 9.79 nM
